Test results taken from patent publication US12419305B2, “Antimicrobial compositions” (Firmenich SA, priority 2018, dated 2025).
Like-named read-outs stand apart in the source and are kept apart here.

Experiments:
C. xerosis ATCC 373 = assay: BCT test (bacterial contact time), 120 s, log reduction / effect fraction; CI by Compusyn; assay type: cell-based; details: Corynebacterium xerosis, ATCC373, 2 min, contact 120 s, 25% EtOH
How it was run: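 C. xerosis cells grown in BHI-TW80 at 37 °C to OD600 1.6 were exposed to ethanolic perfume compositions for 120 s. Viable counts (log CFU) came from serial dilution and OD600 growth after 37 °C incubation, giving log reduction versus ethanol control. CI was computed from concentrations and effect fractions, with <0.9 taken as synergy.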

E. coli ATCC 10536 = assay: BCT test (bacterial contact time), 45 s, log reduction / effect fraction; CI by Compusyn; assay type: cell-based, Escherichia coli; details: Escherichia coli, ATCC10536, 45 s, 45 s, in 20% EtOH
How it was run: (§1)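 Combination index comes from dose and effect fraction of each blend and its single components, with values under 0.9 taken as synergistic and above 1.0 as antagonistic. Effect reflects log reduction in viable count after short contact of ~1×10^8 bacteria/mL with ethanolic test solutions.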

S. aureus ATCC 6538 = assay: BCT test (bacterial contact time), 60 s, log reduction / effect fraction; CI by Compusyn; assay type: cell-based, Staphylococcus aureus; details: Staphylococcus aureus, ATCC6538, 1 min, in 25% EtOH
How it was run: as §1

[1] = tested on: Pseudomonas aeruginosa ATCC 15442; assay: as above; assay type: cell-based; details: Pseudomonas aeruginosa, ATCC15442, 1 min, BCT 60 s, in 25% EtOH
How it was run: as §1

[2] = tested on: Salmonella enterica ATCC 10708; assay: as above; assay type: cell-based; details: Salmonella enterica, ATCC10708, 1 min, BCT 60 s, in 25% EtOH; for log reduction at 0.1 % strength: read-out: Log reduction
How it was run: as §1

Question: Which results are given for `C=CCc1ccc(O)c(OC)c1` [Eugenol F, 2-Methoxy-4-(prop-2-en-1-yl)phenol]?
Answer: log reduction at 0.1 % strength (C. xerosis ATCC 373; dose 0.1% w/v): 0.1; log reduction at 0.2 % strength (C. xerosis ATCC 373; dose 0.2% w/v, read-out: Log reduction): 0.4; log reduction at 0.25 % strength (C. xerosis ATCC 373; dose 0.25% w/v, read-out: Log reduction): 1.8; log reduction at 0.3 % strength (C. xerosis ATCC 373; dose 0.3% w/v, read-out: Log reduction): 2.7; log reduction at 0.4 % strength (C. xerosis ATCC 373; dose 0.4% w/v, read-out: Log reduction): 5.1; log reduction at 0.5 % strength (C. xerosis ATCC 373; dose 0.5% w/v): 6.3; log reduction at 0.075 % strength (E. coli ATCC 10536; dose 0.075 % w/v): 0; log reduction at 0.09 % strength (E. coli ATCC 10536; dose 0.090 % w/v): 0.3; log reduction at 0.1 % strength (E. coli ATCC 10536; dose 0.100 % w/v, read-out: Log reduction): 0.9; log reduction at 0.125 % strength (E. coli ATCC 10536; dose 0.125 % w/v): 2.5; log reduction at 0.15 % strength (E. coli ATCC 10536; dose 0.150 % w/v): 7.4; log reduction at 0.1 % strength (S. aureus ATCC 6538; Dose 0.1 % w/v, BCT 60 s): 0.8; log reduction at 0.125 % strength (S. aureus ATCC 6538; Dose 0.125 % w/v, BCT 60 s): 1.6; log reduction at 0.15 % strength (S. aureus ATCC 6538; Dose 0.15 % w/v, BCT 60 s, read-out: Log reduction): 2.3; log reduction at 0.175 % strength (S. aureus ATCC 6538; Dose 0.175 % w/v, BCT 60 s, read-out: Log reduction): 5.5; log reduction at 0.1 % strength (S. aureus ATCC 6538; dose 0.100 % w/v, 60 s): 0.7; log reduction at 0.125 % strength (S. aureus ATCC 6538; dose 0.125 % w/v, 60 s): 1.5; log reduction at 0.13 % strength (S. aureus ATCC 6538; dose 0.13 % w/v, 60 s): 1.6; log reduction at 0.15 % strength (S. aureus ATCC 6538; dose 0.150 % w/v, 60 s, read-out: Log reduction): 2.2; log reduction at 0.175 % strength (S. aureus ATCC 6538; dose 0.175 % w/v, 60 s, read-out: Log reduction): 4.6; log reduction at 0.2 % strength (S. aureus ATCC 6538; dose 0.200 % w/v, 60 s, read-out: Log reduction): 6.9; log reduction at 0.12 % strength ([1]; Dose 0.12 % w/v): 2.4; log reduction at 0.14 % strength ([1]; Dose 0.14 % w/v): 3.8; log reduction at 0.15 % strength ([1]; Dose 0.15 % w/v): 7.5; log reduction at 0.075 % strength ([2]; Dose 0.075 % w/v): 1; log reduction at 0.1 % strength ([2]; Dose 0.1 % w/v): 2.4; log reduction at 0.1 % strength ([2]; Dose 0.10 % w/v): 2; log reduction at 0.125 % strength ([2]; Dose 0.125 % w/v): 4.4; log reduction at 0.15 % strength ([2]; Dose 0.15 % w/v): 7.8
